According to patent US20250304623A1, “PEPTIDES FOR INTRACELLULAR DELIVERY” (UNIVERSIDADE DE SANTIAGO DE COMPOSTELA, priority 2022, published 2025):
Starred links: 1 amine or outer side, 2 acyl side, 3 side chain; linkers in the order of their positions; H or OH if unused. Residues, ends and D or L forms follow the SMILES beside them. Groups on a side chain read outwards from the residue. *: point of attachment. Glutaryl = O=C(CCCC(=O)[*:2])[*:1]; NHNH2 = NN*

Experiments:
Hela cells = experiment: EGFP mRNA delivery, robotic library screening, HeLa; assay type: cell-based
Procedure: Cells were seeded in a 96 well plate the day before the experiment at a concentration of 50,000 cell/mL (100 μL/w) in DMEM+10% FBS+1% Gln-Abt. For robotic library screening, the delivery of EGFP-mRNA (from TriLink, fully substituted with 5-methoxyuridine, capped and polyadenylated; TriLink, CleanCap® EGFP mRNA (5moU), ref. L-7201) in six different cell lines was performed. Amphiphilic molecule stock solutions were prepared in DMSO as described above and diluted in DMEM to afford a range of concentrations. The solutions of EGFP-mRNA/amphiphilic molecule complexes were freshly prepared prior to the transfection experiments. 35 μL of the corresponding amphiphile were added to 10 μL of a solution of EGFP-mRNA at 10 ng/μL in DMEM. The mixture was shaken for 30 min at room temperature before the addition to the cells. The cell medium was aspirated, and cells were washed with PBS twice. Cells were covered with 39 μL of DMEM and 11 μL of the complex's solution were added to the cells and incubated for 4 h (final concentration of peptide=2.5, 5 and 10 μM; final concentration of EGFP-mRNA=25 ng/well). After the incubation, the medium was replaced by 100 μL of fresh DMEM supplemented with 10% FBS. The total EGFP fluorescence was quantified after 72 h in a well plate reader. Amphiphile transfection efficiency was compared and normalized to Lipofectamine® MessengerMax efficiency (value of 1 in Tables 1-5 and 7; double underlined numbers). All experiments were done in triplicate.
Tables 1-7: RLuc (pDNA) or EGFP (mRNA) expression levels were normalized to Lipofectamine reagents (value=1) and expressed as fold-times signal increase. In the case of siRNA, the siRNA treated cells fluorescence was compared with siMOCK control fluorescence, while Cas9-RNP mediated knockout was measured against the fluorescence of untreated cells. In both siRNA and Cas9-RNP, values are expressed as % fluorescence reduction. Amphiphile concentration was 5 μM in all cases. All experiments were performed in triplicate.
Tables 14-19 show the mean (triplicates) fluorescence intensity measured after the transfection of EGFP mRNA by different amphiphiles at different concentrations in a variety of cell lines. Background fluorescence values, accounted by untreated control cells, were subtracted for processing.

HeLa-EGFP cells = experiment: Cas9 ribonucleoprotein delivery, flow cytometry of EGFP negative cells; assay type: cell-based
Procedure: FIG. 2 Percentage of editing (in bars, left axis) in HeLa-EGFP cells incubated with Cas9 ribonucleoprotein with an EGFP-targeting gRNA using the amphiphiles comprising 7.3(Leu-His) peptide with myristoleyl, palmitoleyl or petroselinyl aldehydes. After 3 days, EGFP negative cells (bars; left axis) and cell concentration (dots; right axis) were quantified by flow cytometry. ([Cas9]=50 nM, amphiphiles concentration in μM).
The inventors evaluated the intracellular delivery of Cas9 ribonucleoprotein with a gRNA targeting EGFP into HeLa-EGFP cells, using an amphiphilic molecule comprising peptide 7.3(Leu-His) combined with myristoleyl, palmitoleyl or petroselinyl aldehydes. After 3 days, EGFP negative cells were quantified by flow cytometry.

Compound	mean fluorescence intensity (EGFP mRNA) (Hela cells; HeLa, Myristoleyl, 2.5 μM)	mean fluorescence intensity (EGFP mRNA) (Hela cells; HeLa, Oleyl, 5 μM)	mean fluorescence intensity (EGFP mRNA) (Hela cells; HeLa, Petroselinyl, 2.5 μM)	mean fluorescence intensity (EGFP mRNA) (Hela cells; HeLa, Petroselinyl, 10 μM)	mean fluorescence intensity (EGFP mRNA) (Hela cells; Hela, Myristoleyl, 5 μM)	mean fluorescence intensity (EGFP mRNA) (Hela cells; Hela, Petroselinyl, 5 μM)	mean fluorescence intensity (EGFP mRNA) (Hela cells; HeLa, Dodecanal, 2.5 μM)	mean fluorescence intensity (EGFP mRNA) (Hela cells; HeLa, Dodecanal, 5 μM)	mean fluorescence intensity (EGFP mRNA) (Hela cells; Hela, Dodecanal, 10 μM)	mean fluorescence intensity (EGFP mRNA) (Hela cells; Hela, Myristoleyl, 10 μM)	other results
CC(=O)N[C@@H](CCCNC(=N)N)C(=O)N[C@@H](CCCCNC(=O)CCCC(=O)NN)C(=O)N[C@@H](Cc1c[nH]cn1)C(=O)N[C@@H](CCCNC(=N)N)C(=O)N[C@@H](CCCCNC(=O)CCCC(=O)NN)C(=O)N[C@@H](CCCCNC(=O)CCCC(=O)NN)C(=O)N[C@@H](Cc1c[nH]cn1)C(N)=O [7.3(L-H), Ac-RK*HRK*K*H-NH2] (Ac-RK([Glutaryl-NHNH2])HRK([Glutaryl-NHNH2])K([Glutaryl-NHNH2])H-NH2)	30978	16633	15046	2234	3346	28395	–	–	–	–	mean fluorescence intensity (EGFP mRNA) (Hela cells; HeLa, Oleyl, 2.5 μM): 13495; mean fluorescence intensity (EGFP mRNA) (Hela cells; HeLa, Palmitoleyl, 2.5 μM): 46778; mRNA delivery relative to Lipofectamine MessengerMAX (Hela cells; HeLa, myristoleyl, palmitoleyl or petroselinyl aldehydes): between two and three times better; mean fluorescence intensity (EGFP mRNA) (Hela cells; Hela, Palmitoleyl, 5 μM): 21109; mean fluorescence intensity (EGFP mRNA) (Hela cells; Hela, Palmitoleyl, 10 μM): 1577; % of editing (EGFP negative cells) (HeLa-EGFP cells; Cas9 50 nM, flow cytometry after 3 days, amphiphile tails myristoleyl or palmitoleyl): 70%; concentration of cells relative to Lipofectamine (HeLa-EGFP cells; after 3 days, myristoleyl or palmitoleyl aldehydes, on average): three times higher
Ac-RHLK*RHK*RRLK*RH-NH2 (Ac-RHLKRHKRRLKRH-NH2; not fully specified (residues 4, 7, 11); printed as Ac-RHLK*RHK*RRLK*RH-NH2; also: linker on K* not given here) [13(3His)]	621	–	640	178	–	208	–	–	–	–	–
Ac-RHLK*RLK*RRLK*RL-NH2 (Ac-RHLKRLKRRLKRL-NH2; not fully specified (residues 4, 7, 11); printed as Ac-RHLK*RLK*RRLK*RL-NH2; also: linker on K* not given here) [13(Arg-His)]	–	–	360	−15	–	135	–	–	–	–	mean fluorescence intensity (EGFP mRNA) (Hela cells; HeLa, Palmitoleyl, 2.5 μM): 578
Ac-RK*LRK*K*L-NH2 (Ac-RK(NHNH2)LRK(NHNH2)K(NHNH2)L-NH2; not fully specified; printed as Ac-RK*LRK*K*L-NH2; also: K*2,K*5,K*6: native or modified lysine (ε-amide to a linker)) [Peptide 7.3]	13591	501	9039	732	–	–	6327	4738	572	647	mean fluorescence intensity (EGFP mRNA) (Hela cells; Hela, Palmitoleyl, 10 μM): 189
Ac-RK*LRRK*L-NH2 (Ac-RK(NHNH2)LRRK(NHNH2)L-NH2; not fully specified; printed as Ac-RK*LRRK*L-NH2; also: K*2,K*6: native or modified lysine (ε-amide to a linker)) [Peptide 7.2]	5194	–	–	–	654	–	268	341	288	358	–
Ac-RK*LRRK*LRK*-NH2 (Ac-RK(NHNH2)LRRK(NHNH2)LRK(NHNH2)-NH2; not fully specified; printed as Ac-RK*LRRK*LRK*-NH2; also: K*2,K*6,K*9: native or modified lysine (ε-amide to a linker)) [Peptide 9.3]	11661	441	–	1322	2874	9616	2347	3482	–	–	mean fluorescence intensity (EGFP mRNA) (Hela cells; Hela, Oleyl, 10 μM): 335; mean fluorescence intensity (EGFP mRNA) (Hela cells; Hela, Palmitoleyl, 5 μM): 3313
Ac-RK*LRRLLRK*-NH2 (Ac-RK(NHNH2)LRRLLRK(NHNH2)-NH2; not fully specified; printed as Ac-RK*LRRLLRK*-NH2; also: K*2,K*9: native or modified lysine (ε-amide to a linker)) [Peptide 9.2]	1738	–	–	–	585	–	933	390	–	–	–
Ac-RRHK*RLK*RRLK*RL-NH2 (Ac-RRHK(NHNH2)RLK(NHNH2)RRLK(NHNH2)RL-NH2; not fully specified; printed as Ac-RRHK*RLK*RRLK*RL-NH2; also: K*4,K*7,K*11: native or modified lysine (ε-amide to a linker)) [13(Leu-His)]	–	–	–	45	–	112	–	–	–	–	–
Ac-RRLK*RLK*RRLK*RL-NH2 [Peptide 13.3]	535	427	633	489	580	497	–	445	393	424	–
Ac-RRLK*RLLRRLK*RL-NH2 (Ac-RRLK(NHNH2)RLLRRLK(NHNH2)RL-NH2; not fully specified; printed as Ac-RRLK*RLLRRLK*RL-NH2; also: K*4,K*11: native or modified lysine (ε-amide to a linker)) [Peptide 13.2]	–	273	–	–	–	–	–	–	–	–	–
Ac-RRLK*RLLRRLK*RLK*RRL-NH2 (Ac-RRLK(NHNH2)RLLRRLK(NHNH2)RLK(NHNH2)RRL-NH2; not fully specified; printed as Ac-RRLK*RLLRRLK*RLK*RRL-NH2; also: K*4,K*11,K*14: native or modified lysine (ε-amide to a linker)) [Peptide 17.3]	64	–	–	−16	6	25	–	43	52	76	–
